{"source": "patent US20210267977A1", "about": "“C[…] AFTER 5HT2A AGONISTS ADMINISTRATION” (Universitätsspital Basel, priority 2020, published 2021)", "key": {"humans": {"test_system": "humans", "conditions": "cited from earlier work"}, "healthy subjects [1]": {"test_system": "healthy subjects", "test": "Example 3 clinical study: subjective drug effects (VAS, 5D-ASC), ketanserin or placebo 1 hour after LSD", "conditions": "for duration of action of LSD: three subjects", "procedure": "(§1) Study design: The study used a double-blind, placebo-controlled, random-order 2-period cross-over design with 2 treatment conditions: 1) 100 μg LSD+ketanserin (40 mg) and 2) 100 μg LSD+placebo. Ketanserin or placebo was administered 1 hour after LSD. The washout periods between sessions were at least 10 days. The study was registered at ClinicalTrials.gov (NCT04558294).\n(§2) Participants: Healthy subjects (men and women) were recruited. Participants who were younger than 25 years old were excluded from participating in the study. Additional exclusion criteria were age >65 years, pregnancy (urine pregnancy test at screening and before each test session), personal or family (first-degree relative) history of major psychiatric disorders (assessed by the Semi-structured Clinical Interview for Diagnostic and Statistical Manual of Mental Disorders, 4th edition, Axis I disorders by a trained psychiatrist), the use of medications that may interfere with the study medications (e.g. antidepressants, antipsychotics, sedatives), chronic or acute physical illness (abnormal physical exam, electrocardiogram, or hematological and chemical blood analyses), tobacco smoking (>10 cigarettes/day), lifetime prevalence of illicit drug use >10 times (except for Δ^9-tetrahydrocannabinol), illicit drug use within the last 2 months, and illicit drug use during the study (determined by urine drug tests).\n(§3) Study drugs: LSD (D-lysergic acid diethylamide base, high-performance liquid chromatography purity >99%; Lipomed AG, Arlesheim, Switzerland) was administered as an oral solution in units containing 100 μg LSD in 1 mL of 96% ethanol (Holze et al., 2019). Ketanserin was obtained as the marketed drug (KETENSIN® (Janssen)) and encapsulated with opaque capsules to ensure blinding. Ketanserin placebo consisted of identical opaque capsules filled with mannitol.\n(§4) Study procedures: The study included a screening visit, two 13 hour test sessions (7:00 AM-8:00 PM), and an end-of-study visit. LSD was administered at 8:00 AM. Ketanserin (40 mg) or placebo was administered at 9:00 AM. The outcome measures were repeatedly assessed for 12 hours after LSD administration.\nSubjective drug effects: Subjective effects were assessed repeatedly using visual analog scales (VASs) 0, 0.5, 1, 1.5, 2, 2.5, 3, 3.5, 4, 5, 6, 7, 8, 9, 10, 11, and 12 hours after LSD administration. The VASs were presented as 100-mm horizontal lines (0-100%), marked from “not at all” on the left to “extremely” on the right. The 5D-ASC scale (Dittrich, 1998; Studerus et al., 2010) was administered 12 hours after LSD administration to retrospectively rate alterations in waking consciousness induced by the drugs. Autonomic, adverse, and endocrine effects: Blood pressure, heart rate, and tympanic body temperature were repeatedly measured 1 hour before and 0, 0.5, 1, 1.5, 2.5, 3, 3.5, 4, 5, 6, 7, 8, 9, 10, 11, and 12 hours after LSD administration as previously described in detail (Hysek et al., 2010). Adverse effects were systematically assessed up to 12 hours after drug administration using the 66-item List of Complaints (Zerssen, 1976)."}, "healthy subjects [2]": {"test_system": "healthy subjects", "test": "Example 3 clinical study: cardiovascular and adverse effects (List of Complaints)", "conditions": "for total of reported complaints on the LC list (mean±SEM): up to 12 hours after LSD", "procedure": "as §1, §2, §3, §4\nSubjective drug effects: Subjective effects were assessed repeatedly using visual analog scales (VASs) 0, 0.5, 1, 1.5, 2, 2.5, 3, 3.5, 4, 5, 6, 7, 8, 9, 10, 11, and 12 hours after LSD administration. […] Autonomic, adverse, and endocrine effects: Blood pressure, heart rate, and tympanic body temperature were repeatedly measured 1 hour before and 0, 0.5, 1, 1.5, 2.5, 3, 3.5, 4, 5, 6, 7, 8, 9, 10, 11, and 12 hours after LSD administration as previously described in detail (Hysek et al., 2010). Adverse effects were systematically assessed up to 12 hours after drug administration using the 66-item List of Complaints (Zerssen, 1976)."}, "healthy subjects [3]": {"test_system": "healthy subjects", "test": "Example 2 clinical study: autonomic and adverse effects (blood pressure, heart rate, body temperature, List of Complaints)", "conditions": "ketanserin 40 mg before 200 μg LSD", "from_the_text": "The washout periods between sessions were at least 10 days. The study was registered at ClinicalTrials.gov (NCT03321136).\nas §2, with “Participants” for “Participants: Healthy subjects (men and women) were recruited. Participants”, “tests). […]” for “tests).”\nKetanserin (40 mg) or placebo was administered at 8:00 AM. […] The outcome measures were repeatedly assessed for 24 hours.\nAutonomic, adverse, and endocrine effects: Blood pressure, heart rate, and tympanic body temperature were repeatedly measured 1 hour before and 0, 0.5, 1, 1.5, 2.5, 3, 4, 5, 6, 7, 8, 9, 10, 11, 12, 14, 16, and 24 hours after drug administration as previously described in detail (Hysek et al., 2010). Adverse effects were systematically assessed 1 hour before and 12 and 24 hours after drug administration using the 66-item List of Complaints (Zerssen, 1976).\nData analysis: Peak (Emax and/or Emin) or peak change from baseline (ΔEmax) values were determined for repeated measures. The values were then analyzed using repeated-measures analysis of variance (ANOVA), with drug as within-subjects factor, followed by Tukey post hoc comparisons using Statistica 12 software (StatSoft, Tulsa, Okla., USA). […]"}, "5HT2A receptor": {"target": "T1, 5HT2A receptor (Homo sapiens, UniProt P28223)", "T1 construct": "ketanserin (40 mg orally) 1 hour prior to the oral administration of LSD; host or cells: human subjects (in vivo, endogenous receptor)", "T1 sequence (P28223 whole entry)": "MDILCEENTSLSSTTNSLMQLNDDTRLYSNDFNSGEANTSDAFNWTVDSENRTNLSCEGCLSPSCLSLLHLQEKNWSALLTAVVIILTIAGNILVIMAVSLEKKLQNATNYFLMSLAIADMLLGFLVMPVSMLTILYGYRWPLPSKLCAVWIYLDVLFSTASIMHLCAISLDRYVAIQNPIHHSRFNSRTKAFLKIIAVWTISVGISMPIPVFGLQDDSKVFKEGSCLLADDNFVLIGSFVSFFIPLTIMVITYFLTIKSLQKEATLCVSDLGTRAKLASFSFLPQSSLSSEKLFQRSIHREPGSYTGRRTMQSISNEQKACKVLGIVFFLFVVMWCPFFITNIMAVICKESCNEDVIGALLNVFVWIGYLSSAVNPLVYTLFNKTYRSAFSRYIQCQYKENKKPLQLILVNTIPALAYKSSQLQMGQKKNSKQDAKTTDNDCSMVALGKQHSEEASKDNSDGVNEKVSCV", "conditions": "cited from earlier work"}, "[4]": {"test": "Example 2 clinical study: plasma LSD pharmacokinetics", "conditions": "ketanserin 40 mg before 200 μg LSD, one-compartment model", "procedure": "The blood samples were immediately centrifuged, and the plasma was subsequently stored at −80° C. until analysis."}, "healthy subjects [5]": {"test_system": "healthy subjects", "test": "Example 2 clinical study: subjective drug effects (VAS, AMRS, 5D-ASC, MEQ), ketanserin before LSD", "type": "in vivo, human", "conditions": "16 subjects", "procedure": "The study was registered at ClinicalTrials.gov (NCT03321136).\n100 μg LSD/100 μg LSD). […] Placebo consisted of identical opaque capsules filled with mannitol.\nLSD or placebo was administered at 9:00 AM. The outcome measures were repeatedly assessed for 24 hours.\nThe VASs for “concentration”, and “perception of time” were bidirectional (±50%). Marked from “not at all” on the left (−50), to “normal” in the middle (0), to “extremely” on the right (+50) for concentration and “slowed” (−50) and “racing” (+50) for “perception of time”. […] Mystical experiences were assessed using the German version (Liechti et al., 2017) of the 100-item States of Consciousness Questionnaire (SOCQ) (Griffiths et al., 2006) that includes the 43-item and newer 30-item MEQ (MEQ43 (Griffiths et al., 2006) and MEQ30 (Barrett et al., 2015)). The 60-item Adjective Mood Rating Scale (AMRS) (Janke & Debus, 1978) was administered 1 hour before and 3, 6, 9, 12, and 24 hours after drug administration.\nThe criterion for significance was p<0.05."}, "[6]": {"conditions": "100 μg LSD + ketanserin 40 mg 1 hour after"}, "[7]": {"conditions": "ketanserin 40 mg 1 hour after 100 μg LSD"}, "[8]": {"conditions": "ketanserin 40 mg before 200 μg LSD, reduced to the level of 25 μg LSD"}}, "note": "Read-outs that look alike come from different tables or passages of the source."}
{"smiles": "CCN(CC)C(=O)[C@@H]1C=C2c3cccc4[nH]cc(c34)C[C@H]2N(C)C1", "note": "[LSD, Lysergic acid diethylamide]", "values": [{"measurement": "duration of subjective effects (mean±SD)", "setting": "humans; 100 μg LSD, Holze et al., 2019, range: 5.3-12.8 hour", "value": "8.5 ± 2.0", "unit": "h"}, {"measurement": "duration of LSD effects", "setting": "humans; 100 μg dose, Dolder et al., 2017, range: 5-14 hours", "value": "8.2 ± 2.1", "unit": "h"}, {"measurement": "duration of LSD effects", "setting": "humans; 200 μg dose, Dolder et al., 2017, range: 7-19.5 hours", "value": "11.6 ± 1.7", "unit": "h"}, {"measurement": "total 3D-OAV score", "setting": "healthy subjects [1]; 100 μg LSD + placebo", "value": 34, "unit": "%"}, {"measurement": "duration of action of LSD", "setting": "healthy subjects [1]; 100 μg LSD + placebo 1 hour after", "value": 10, "unit": "h"}, {"measurement": "total of reported complaints on the LC list (mean±SEM)", "setting": "healthy subjects [2]; 100 μg LSD + placebo", "value": "7±3.6"}]}
{"smiles": "O=C(c1ccc(F)cc1)C1CCN(CCn2c(=O)[nH]c3ccccc3c2=O)CC1", "note": "[ketanserin]", "values": [{"measurement": "acute adverse effects of 200 μg LSD (List of Complaints)", "setting": "healthy subjects [3]", "value": "significantly prevented"}, {"measurement": "LSD response on blood pressure", "setting": "healthy subjects [3]; 16 subjects", "value": "transiently reduced the LSD response on blood pressure only up to 6 hours"}, {"measurement": "LSD-induced heart rate response", "setting": "healthy subjects [3]; 16 subjects", "value": "significantly prevented"}, {"measurement": "effect on the LSD experience", "setting": "5HT2A receptor; ketanserin 40 mg orally 1 hour prior to LSD 200 μg, Liechti", "value": "similarly prevented the LSD experience"}, {"measurement": "effect on the LSD experience", "setting": "5HT2A receptor; ketanserin 40 mg orally 1 hour prior to oral LSD 70-100 μg, Preller et al., 2017", "value": "prevent the LSD experience almost completely"}, {"measurement": "total 3D-OAV score", "setting": "healthy subjects [1]; [6]", "value": 24, "unit": "%"}, {"measurement": "duration of action of LSD", "setting": "healthy subjects [1]; [6]", "value": 4, "unit": "h"}, {"measurement": "set-in of the ketanserin effect on the subjective response to LSD, time after ketanserin administration", "setting": "healthy subjects [1]; [7]", "value": 1, "unit": "h"}, {"measurement": "time to blockade of the LSD-typical effects", "setting": "healthy subjects [1]; [7]", "value": "within two hours"}, {"measurement": "typical mind altering effects of LSD on VAS (any drug effect, good drug effect, visual, auditory, synaesthetic, sense of time, ego-dissolution)", "setting": "healthy subjects [1]; [7]", "value": "very effectively reduced"}, {"measurement": "reduction of the duration of action of LSD", "setting": "healthy subjects [1]; ketanserin 40 mg 1 hour after 100 μg LSD vs placebo", "value": "approximately 60%"}, {"measurement": "recurrence of the LSD effect", "setting": "healthy subjects [1]; ketanserin 40 mg 1 hour after 100 μg LSD, 12 hours observation", "value": "no recurrence of the LSD effect"}, {"measurement": "nausea induced by LSD (VAS)", "setting": "healthy subjects [1]; ketanserin 40 mg 1 hour after 100 μg LSD, more data needed", "value": "tended to reduce nausea"}, {"measurement": "acute subjective psychedelic response to LSD", "setting": "healthy subjects [1]; ketanserin 40 mg 1 hour after LSD base 100 μg", "value": "markedly shortened and also attenuated"}, {"measurement": "feelings of tiredness (VAS)", "setting": "healthy subjects [1]; ketanserin 40 mg added to 100 μg LSD compared with placebo", "value": "increased feelings of tiredness"}, {"measurement": "subjective feelings of stimulation (VAS)", "setting": "healthy subjects [1]; ketanserin 40 mg after 100 μg LSD compared with LSD alone", "value": "increased subjective feelings of stimulation"}, {"measurement": "subjective effects of LSD on the 5D-ASC Scale", "setting": "healthy subjects [1]; ketanserin 40 mg after 100 μg LSD in comparison with placebo", "value": "reduced the subjective effects of LSD"}, {"measurement": "reduction of the total 3D-OAV score", "setting": "healthy subjects [1]; ketanserin 40 mg after 100 μg LSD vs placebo", "value": "approximately 30%"}, {"measurement": "total of reported complaints on the LC list (mean±SEM)", "setting": "healthy subjects [2]; 100 μg LSD + ketanserin 40 mg", "value": "8.3±4"}, {"measurement": "cardiovascular effects of LSD (blood pressure, heart rate, body temperature)", "setting": "healthy subjects [2]; ketanserin 40 mg 1 hour after 100 μg LSD compared with placebo", "value": "no relevant effects on the cardiovascular effects of LSD"}, {"measurement": "diastolic blood pressure", "setting": "healthy subjects [2]; ketanserin 40 mg 1 hour after 100 μg LSD, needing further study", "value": "transient decrease in diastolic blood pressure"}, {"measurement": "effect on the PK of 200 μg LSD", "setting": "[4]", "value": "only minimally altered"}, {"measurement": "LSD response on the AMRS", "setting": "healthy subjects [5]; ketanserin 40 mg 1 hour before 200 μg LSD", "value": "significantly prevented anxiety, introversion and emotional excitation"}, {"measurement": "overall subjective response to high-dose LSD", "setting": "healthy subjects [5]; ketanserin 40 mg 1 hour before 200 μg LSD, most P<0.001", "value": "reduced the subjective response to high-dose LSD approximately to the level of the 25 μg LSD dose"}, {"measurement": "subjective effects on the 5D-ASC Scale", "setting": "healthy subjects [5]; [8]", "value": "significantly and markedly reduced"}, {"measurement": "subjective effects on the MEQ and subscales 'Nadir' and 'Aesthetic experience' (SOCQ)", "setting": "healthy subjects [5]; [8]", "value": "significantly and markedly reduced"}]}
